By pIC50 is commonly meant the negative decadic logarithm of the IC50, by convention in mol/L.

Our source for the IC50 values is patent US11420966B2 (ACLARIS THERAPEUTICS, INC., priority 2019, dated 2022).

pIC50: −log10 of the molar value. Bounds are passed on as bounds.

Assay [1] deals with IFNγ stimulated STAT1 phosphorylation on Tyr701 (JAK1/2). Put plainly: JAK1/2 cellular target modulation: IFNγ stimulated phospho-STAT1 in PBMC. The format is cell-based. Conditions: human PBMC, IFNγ 10 ng/ml; read-out: Infγ-STAT1 IC50. The text has this: (§1) JAK Cellular Target Modulation Assays
(§2) Target modulation was based upon the ability of a compound to inhibit JAK isoform specific phosphorylation of selected substrates. IL-2 stimulated STAT5 phosphorylation on Tyr694 was used to assess JAK1/3 compound selectivity. GM-CSF stimulated STAT5 phosphorylation on Tyr694 was used to assess JAK2 compound selectivity. IFNγ stimulated STAT1 phosphorylation on Tyr701 was used to assess JAK1/2 compound selectivity. IL-12 stimulated STAT4 phosphorylation on Tyr693 was used to assess JAK2/TYK2 compound selectivity. For all four assays, human PBMC from frozen stocks were thawed, pelleted, resuspended in complete media (90% RPMI, 10% heat inactivated FBS, 10 mM HEPES, 47 μM 2-ME, pen/strep) and placed in wells of a 96 well V-bottom plate at 200,000 per well in 120 μl complete media. Compounds were added as 15 μl per well of 10× working stock solutions in complete media with 1% DMSO (or medium with 1% DMSO for controls) and placed on a plate shaker in a 37° C. incubator with 5% CO2 for 1 hour with gentle shaking (setting of 3). Stimulation used the addition of soluble cytokines. For the JAK1/3 phospho-STAT5 assay, 15 μl of 10× working stock recombinant human IL-2 was added to a final concentration of 25 ng/ml. For the JAK2 phospho-STAT5 assay, 15 μl of 10× working stock recombinant human GM-CSF was added to a final concentration of 5 ng/ml. For the JAK1/2 phospho-STAT1 assay, 15 μl of 10× working stock of recombinant human IFNγ was added to a final concentration of 10 ng/ml. For the JAK2/TYK2 phospho-STAT4 assay, 15 μl of 10× working stock of recombinant human IL-12 was added to a final concentration of 1.7 ng/ml. Plates were then placed back on the plate shaker in the incubator for an additional 5, 5, 10, and 25 minutes respectively upon which the plates were removed from the incubator, sealed with a plate sealer and the cells pelleted at 400×g for 5 minutes. After pelleting, the media was removed by aspiration and the cells were lysed in assay specific cell lysis buffer. The levels of phospho-STATS were determined using a Phospho (Tyr694) STAT5a,b Whole Cell Lysate kit from Meso Scale Discovery. Levels of phospho-STAT1 were determined using a CST-PathScan Phospho-STAT1 (Tyr701) Sandwich ELISA kit. Levels of phospho-STAT4 were determined using a Phospho-STAT4 (Tyr693) Whole Cell Lysate kit from Meso Scale Discovery.

Assay [2] concerns the target Tyk-2 (Homo sapiens (Human), UniProt P29597). Put plainly: Tyk-2 enzyme activity assay (Thermo Fisher SelectScreen, Z-lyte). The following applies: read-out: Tyk-2 Inhibition IC50. The format is biochemical. The procedure: (§3) JAK1, JAK2, JAK3, and Tyk-2 Enzyme Activity Assays
(§4) The inhibitory potency of candidate compounds of JAK1, JAK2, and Tyk-2 was done at Thermo Fisher Scientific in their Selectscreen using a Z-lyte assay. Following are the assay details for each enzyme.
TYK2: The 2×TYK2/Tyr 03 mixture is prepared in 50 mM HEPES pH 6.5, 0.01% BRIJ-35, 10 mM MgCl2, 1 mM EGTA, 0.02% NaN3. The final 10 μL Kinase Reaction consists of 3.75-15 ng TYK2 and 2 M Tyr 03 in 50 mM HEPES pH 7.0, 0.01% BRIJ-35, 10 mM MgCl2, 1 mM EGTA, 0.01% NaN3. After the one hour KinaseReaction incubation, 5 μL of a 1:4096 dilution of Development Reagent A is added.
(§5) Data reduction for JAK1, JAK2 and TYK2 is done the same, independent of the enzyme run. In summary, background signal is defined in the absence of enzyme and uninhibited signal is defined in the presence of vehicle (2% DMSO) alone. Compounds were evaluated in an 11 point dose-response ranging from […] to 0.34 nM. IC50 values of compounds are determined using a 4 parameter logistical fit of emission ratio as a function of the concentration of compound.

Assay [3] addresses JAK3 (a.a. 781-1124) (Homo sapiens (Human), UniProt P52333). Put plainly: JAK3 enzyme activity assay (SRCtide phosphorylation, Caliper). It counts as biochemical. The following applies: 1 uM ATP; read-out: JAK3 Inhibition IC50. The procedure: as §3
Kinase reactions were run in a 384-well Greiner plate with 2% final DMSO concentration under the buffer conditions of 20 mM HEPES, pH 7.5, 10 mM MgCl2, 0.01% BSA, and 0.0005% Tween-20. The kinase reaction components were 2.5 nM JAK3, 1 μM SRCtide peptide and 1 uM ATP. Examples were tested in dose-response starting at 2 M (11 concentrations, 3-fold serial dilution, duplicate reactions). The reactions were incubated at room temperature for 40 minutes, then stopped by adding a 1:1 volume of 30 mM EDTA in 20 mM HEPES, pH 7.5 (15 mM EDTA final). After the reaction was stopped, the phosphorylated and unphosphorylated peptides were separated and quantified using a Caliper LC3000/EZ-Reader system and HTS Well Analyzer Software (Caliper, A PerkinElmer Company, Hopkinton, Mass.). GraFit (Erithacus Software Ltd., Horley, U.K.) was used to calculate inhibitor potency by fitting dose-response data to the 4-parameter logistical IC50 equation.

Assay [4] has as its target JAK1 (Homo sapiens (Human), UniProt P23458). Put plainly: JAK1 enzyme activity assay (Thermo Fisher SelectScreen, Z-lyte). It counts as biochemical. Conditions: read-out: JAK1 Inhibition IC50. The procedure: as §3, §4
JAK: The 2×JAK-enzyme/Tyr 06 mixture is prepared in 50 mM HEPES pH 6.5, 0.01% BRIJ-35, 10 mM MgCl2, 1 mM EGTA, 0.02% NaN3. The final 10 μL of the Kinase Reaction consists of 21.2-91.5 ng JAK and 2 M Tyr 06 in 50 mM HEPES pH 7.0, 0.01% BRIJ-35, 10 mM MgCl2, 1 mM EGTA, 0.01% NaN3. After the one hour Kinase Reaction incubation, 5 μL of a 1:128 dilution of Development Reagent is added.
as §5

Assay [5] deals with IL-2 stimulated STAT5 phosphorylation on Tyr694 (JAK1/3). Put plainly: JAK1/3 cellular target modulation: IL-2 stimulated phospho-STAT5 in PBMC. It counts as cell-based. Conditions: human PBMC, IL-2 25 ng/ml; read-out: IL2-STAT5 IC50.
Text: as §1, §2

Assay [6] deals with JAK2 (Homo sapiens (Human), UniProt O60674). Put plainly: JAK2 enzyme activity assay (Thermo Fisher SelectScreen, Z-lyte). The following applies: read-out: JAK2 Inhibition IC50. The format is biochemical. As to the method: as §3, §4
JAK2, sequence (O60674 whole entry): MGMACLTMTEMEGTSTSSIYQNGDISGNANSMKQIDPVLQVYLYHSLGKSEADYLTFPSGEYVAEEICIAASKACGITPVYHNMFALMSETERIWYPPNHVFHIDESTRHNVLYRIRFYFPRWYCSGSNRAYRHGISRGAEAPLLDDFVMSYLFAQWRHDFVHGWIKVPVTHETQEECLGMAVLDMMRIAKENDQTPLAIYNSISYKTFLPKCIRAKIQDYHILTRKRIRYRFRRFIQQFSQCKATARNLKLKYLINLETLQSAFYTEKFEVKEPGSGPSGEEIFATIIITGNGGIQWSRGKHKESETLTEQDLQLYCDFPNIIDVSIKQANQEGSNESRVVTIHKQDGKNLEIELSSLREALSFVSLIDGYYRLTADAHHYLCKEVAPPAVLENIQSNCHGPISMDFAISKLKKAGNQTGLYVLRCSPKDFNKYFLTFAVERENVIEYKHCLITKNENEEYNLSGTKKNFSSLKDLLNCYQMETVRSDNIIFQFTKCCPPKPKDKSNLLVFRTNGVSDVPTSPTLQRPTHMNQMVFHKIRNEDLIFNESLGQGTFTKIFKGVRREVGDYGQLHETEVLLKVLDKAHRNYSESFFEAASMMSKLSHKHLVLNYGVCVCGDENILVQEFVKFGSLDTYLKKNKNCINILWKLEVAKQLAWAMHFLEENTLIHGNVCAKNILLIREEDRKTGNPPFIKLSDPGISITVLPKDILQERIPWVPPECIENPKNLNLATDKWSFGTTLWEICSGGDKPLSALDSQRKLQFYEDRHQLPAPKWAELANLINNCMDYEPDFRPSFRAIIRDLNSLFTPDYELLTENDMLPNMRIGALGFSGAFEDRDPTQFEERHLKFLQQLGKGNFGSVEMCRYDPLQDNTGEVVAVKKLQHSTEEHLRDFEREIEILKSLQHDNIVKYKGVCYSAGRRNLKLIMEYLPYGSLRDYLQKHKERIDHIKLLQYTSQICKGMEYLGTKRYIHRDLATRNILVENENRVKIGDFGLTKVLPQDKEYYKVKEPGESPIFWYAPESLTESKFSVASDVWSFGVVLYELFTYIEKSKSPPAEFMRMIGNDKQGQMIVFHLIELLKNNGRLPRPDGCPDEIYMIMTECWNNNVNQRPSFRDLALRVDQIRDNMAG
JAK2: The 2×JAK2/Tyr 06 mixture is prepared in 50 mM HEPES pH 7.5, 0.01% BRIJ-35, 10 mM MgCl2, 1 mM EGTA. The final 10 μL Kinase Reaction consists of 0.12-0.5 ng JAK2 and 2 M Tyr 06 in 50 mM HEPES pH 7.5, 0.01% BRIJ-35, 10 mM MgCl2, 1 mM EGTA. After the one hour Kinase Reaction incubation, 5 μL of a 1:128 dilution of Development Reagent A is added.
as §5

Tyk-2, sequence (P29597 whole entry): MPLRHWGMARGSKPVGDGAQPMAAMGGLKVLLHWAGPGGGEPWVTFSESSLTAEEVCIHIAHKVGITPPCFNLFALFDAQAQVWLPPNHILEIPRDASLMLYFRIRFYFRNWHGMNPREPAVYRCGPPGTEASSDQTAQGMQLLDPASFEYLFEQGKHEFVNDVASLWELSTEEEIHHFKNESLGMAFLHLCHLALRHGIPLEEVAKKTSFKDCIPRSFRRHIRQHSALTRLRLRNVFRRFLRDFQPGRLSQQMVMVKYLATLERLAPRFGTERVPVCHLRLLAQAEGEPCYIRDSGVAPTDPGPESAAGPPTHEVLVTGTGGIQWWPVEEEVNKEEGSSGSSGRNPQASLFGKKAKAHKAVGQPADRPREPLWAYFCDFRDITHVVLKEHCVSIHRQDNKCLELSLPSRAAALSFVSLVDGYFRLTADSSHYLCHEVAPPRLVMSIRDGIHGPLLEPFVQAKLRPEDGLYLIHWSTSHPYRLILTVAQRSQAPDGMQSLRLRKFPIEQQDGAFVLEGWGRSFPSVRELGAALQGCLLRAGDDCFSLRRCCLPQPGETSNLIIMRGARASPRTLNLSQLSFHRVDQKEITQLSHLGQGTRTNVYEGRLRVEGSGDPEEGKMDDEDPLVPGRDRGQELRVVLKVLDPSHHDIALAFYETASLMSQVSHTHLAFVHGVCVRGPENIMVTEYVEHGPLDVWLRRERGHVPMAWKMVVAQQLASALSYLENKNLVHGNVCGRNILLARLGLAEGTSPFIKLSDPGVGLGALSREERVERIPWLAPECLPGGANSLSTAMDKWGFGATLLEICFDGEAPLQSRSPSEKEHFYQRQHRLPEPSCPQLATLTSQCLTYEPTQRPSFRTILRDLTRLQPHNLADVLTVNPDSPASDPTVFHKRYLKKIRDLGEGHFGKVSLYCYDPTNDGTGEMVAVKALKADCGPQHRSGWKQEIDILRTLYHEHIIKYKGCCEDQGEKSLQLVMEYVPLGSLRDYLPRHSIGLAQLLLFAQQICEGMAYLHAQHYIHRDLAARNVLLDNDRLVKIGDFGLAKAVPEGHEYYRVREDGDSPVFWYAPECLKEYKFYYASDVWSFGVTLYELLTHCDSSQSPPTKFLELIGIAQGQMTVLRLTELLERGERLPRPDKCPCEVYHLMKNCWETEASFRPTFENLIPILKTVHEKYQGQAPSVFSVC
JAK1, sequence (P23458 whole entry): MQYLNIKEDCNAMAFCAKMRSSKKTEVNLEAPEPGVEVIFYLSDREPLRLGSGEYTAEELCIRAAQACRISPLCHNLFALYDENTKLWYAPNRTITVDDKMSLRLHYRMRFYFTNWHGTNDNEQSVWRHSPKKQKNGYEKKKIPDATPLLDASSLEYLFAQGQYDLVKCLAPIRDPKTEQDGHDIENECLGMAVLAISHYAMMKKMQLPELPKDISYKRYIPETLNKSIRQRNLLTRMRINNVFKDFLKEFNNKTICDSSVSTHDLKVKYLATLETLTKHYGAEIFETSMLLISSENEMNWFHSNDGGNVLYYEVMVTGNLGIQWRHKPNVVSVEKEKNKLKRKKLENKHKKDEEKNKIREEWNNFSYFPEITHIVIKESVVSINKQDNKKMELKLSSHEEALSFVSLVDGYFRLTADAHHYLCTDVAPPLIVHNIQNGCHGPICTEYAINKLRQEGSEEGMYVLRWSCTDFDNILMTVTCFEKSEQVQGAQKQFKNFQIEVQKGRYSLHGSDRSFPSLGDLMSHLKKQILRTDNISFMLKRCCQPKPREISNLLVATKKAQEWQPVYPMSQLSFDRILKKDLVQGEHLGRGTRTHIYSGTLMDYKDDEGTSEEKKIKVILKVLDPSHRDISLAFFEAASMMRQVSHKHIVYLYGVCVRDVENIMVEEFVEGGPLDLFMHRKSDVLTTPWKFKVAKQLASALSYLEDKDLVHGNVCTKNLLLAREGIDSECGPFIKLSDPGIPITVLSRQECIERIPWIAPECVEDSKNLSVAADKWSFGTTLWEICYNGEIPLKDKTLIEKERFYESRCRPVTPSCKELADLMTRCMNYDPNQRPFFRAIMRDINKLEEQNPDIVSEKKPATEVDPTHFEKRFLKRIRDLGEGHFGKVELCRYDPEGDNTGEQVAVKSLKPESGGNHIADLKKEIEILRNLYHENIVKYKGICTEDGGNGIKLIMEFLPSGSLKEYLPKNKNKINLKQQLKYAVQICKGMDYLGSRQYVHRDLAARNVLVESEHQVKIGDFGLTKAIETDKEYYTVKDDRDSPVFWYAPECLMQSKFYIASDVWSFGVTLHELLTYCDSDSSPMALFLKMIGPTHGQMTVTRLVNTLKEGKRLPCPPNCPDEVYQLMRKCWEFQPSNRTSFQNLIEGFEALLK
JAK3 (a.a. 781-1124), sequence (P52333 781-1124): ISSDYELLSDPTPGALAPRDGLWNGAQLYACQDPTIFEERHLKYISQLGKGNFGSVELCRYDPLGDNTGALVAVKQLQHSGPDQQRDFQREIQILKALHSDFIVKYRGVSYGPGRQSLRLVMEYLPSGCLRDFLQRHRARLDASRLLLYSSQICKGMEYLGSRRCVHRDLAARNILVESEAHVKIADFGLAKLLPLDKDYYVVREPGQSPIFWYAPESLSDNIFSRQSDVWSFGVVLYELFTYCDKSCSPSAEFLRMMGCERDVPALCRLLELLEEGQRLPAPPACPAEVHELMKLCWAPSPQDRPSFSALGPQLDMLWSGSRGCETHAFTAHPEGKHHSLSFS

As to `N#CCC(=O)N1CCC[C@@H](Nc2c(-c3cscn3)cnc3[nH]ccc23)C1` [Example 1, (R)-3-oxo-3-(3-((5-(thiazol-4-yl)-1H-pyrrolo[2,3-b]pyridin-4-yl)amino)piperidin-1-yl)propanenitrile], the negative logarithm of the IC50 (pIC50) in assay [1] is 6.00 to 7.00; in assay [2] it was 7.00 to 8.00; in assay [3], 7.00 to 8.00; in assay [4] it was 7.00 to 8.00; in assay [5], 6.00 to 7.00; in assay [6], 7.00 to 8.00.

With `Cc1ncc(-c2cnc3[nH]ccc3c2N[C@@H]2CCCN(C(=O)CC#N)C2)s1` [Example 3, (R)-3-(3-((5-(2-methylthiazol-5-yl)-1H-pyrrolo[2,3-b]pyridin-4-yl)amino)piperidin-1-yl)-3-oxopropanenitrile], the negative-log IC50 (pIC50) in assay [1] is < 6.00; in assay [2], 6.00 to 7.00; in assay [3] it was 7.00 to 8.00; in assay [4] it was 7.00 to 8.00; in assay [5], 6.00 to 7.00; in assay [6], 6.00 to 7.00.

With `N#CCC(=O)N1CCC[C@@H](Nc2c(-c3nnc[nH]3)cnc3[nH]ccc23)C1` [Example 11, (R)-3-(3-((5-(4H-1,2,4-triazol-3-yl)-1H-pyrrolo[2,3-b]pyridin-4-yl)amino)piperidin-1-yl)-3-oxopropanenitrile], the pIC50 in assay [1] was < 6.00; in assay [2], 6.00 to 7.00; in assay [3], 7.00 to 8.00; in assay [4], 7.00 to 8.00; in assay [5], < 6.00; in assay [6], 7.00 to 8.00.

In the case of `O[C@H]1CC[C@@H](Nc2c(-c3ccccn3)cnc3[nH]ccc23)C1` [Example 12, (1S,3R)-3-((5-(pyridin-2-yl)-1H-pyrrolo[2,3-b]pyridin-4-yl)amino)cyclopentan-1-ol], the negative-log IC50 (pIC50) is < 6.00 in assay [1]; 6.00 to 7.00 in assay [2]; 7.00 to 8.00 in assay [3]; 6.00 to 7.00 in assay [4]; 6.00 to 7.00 in assay [5]; 6.00 to 7.00 in assay [6].

Consider `N#CCC(=O)N1CCC[C@@H](Nc2c(-c3nc(C(N)=O)co3)cnc3[nH]ccc23)C1` [Example 14, (R)-2-(4-((1-(2-cyanoacetyl)piperidin-3-yl)amino)-1H-pyrrolo[2,3-b]pyridin-5-yl)oxazole-4-carboxamide], for which the pIC50 was < 6.00 in assay [1]; 7.00 to 8.00 in assay [2]; ≥ 8.00 in assay [3]; ≥ 8.00 in assay [4]; 6.00 to 7.00 in assay [5]; 7.00 to 8.00 in assay [6].

Consider `N#CCC(=O)N1CCC[C@@H](Nc2c(-c3cncs3)cnc3[nH]ccc23)C1` [Example 16, (R)-3-oxo-3-(3-((5-(thiazol-5-yl)-1H-pyrrolo[2,3-b]pyridin-4-yl)amino)piperidin-1-yl)propanenitrile], for which the negative logarithm of the IC50 (pIC50) was < 6.00 in assay [1]; 6.00 to 7.00 in assay [2]; 7.00 to 8.00 in assay [3]; 7.00 to 8.00 in assay [4]; 6.00 to 7.00 in assay [5]; 6.00 to 7.00 in assay [6].

`N#CCC(=O)N1CCC[C@@H](Nc2c(C#N)cnc3[nH]ccc23)C1` [Example 25, (R)-4-((1-(2-cyanoacetyl)piperidin-3-yl)amino)-1H-pyrrolo[2,3-b]pyridine-5-carbonitrile]: the pIC50 in assay [1] is 6.00 to 7.00; in assay [2] it was 7.00 to 8.00; in assay [3], 7.00 to 8.00; in assay [4] it was ≥ 8.00; in assay [5] it was ≥ 7.00; in assay [6] it was 7.00 to 8.00.

On to `CNC(=O)c1ccnc(-c2cnc3[nH]ccc3c2N[C@@H]2CCCN(C(=O)CC#N)C2)c1` [Example 61, (R)-2-(4-((1-(2-cyanoacetyl)piperidin-3-yl)amino)-1H-pyrrolo[2,3-b]pyridin-5-yl)-N-methylisonicotinamide], for which the pIC50 in assay [2] is 6.00 to 7.00; in assay [3], 7.00 to 8.00; in assay [4], 7.00 to 8.00; in assay [5], < 6.00; in assay [6], 7.00 to 8.00.
